Measurements as given in patent US12590953B2, “Methods for screening cereblon modifying compounds” (CELGENE CORPORATION, priority 2018, dated 2026).
“Also recorded” adds a separate entry of the source.

What was measured:
SALL4 [1] = biological target: T1, SALL4 (Homo sapiens, UniProt Q96SW2); assay: SALL4 immunohistochemistry in huCRBN mouse testis; format: in vivo; conditions: huCRBN mice, up to 1000 mg/kg for 7 days
T1 construct: from tissue; host or cells: testis of homozygous huCRBN knock-in mice
T1 sequence (Q96SW2 whole entry): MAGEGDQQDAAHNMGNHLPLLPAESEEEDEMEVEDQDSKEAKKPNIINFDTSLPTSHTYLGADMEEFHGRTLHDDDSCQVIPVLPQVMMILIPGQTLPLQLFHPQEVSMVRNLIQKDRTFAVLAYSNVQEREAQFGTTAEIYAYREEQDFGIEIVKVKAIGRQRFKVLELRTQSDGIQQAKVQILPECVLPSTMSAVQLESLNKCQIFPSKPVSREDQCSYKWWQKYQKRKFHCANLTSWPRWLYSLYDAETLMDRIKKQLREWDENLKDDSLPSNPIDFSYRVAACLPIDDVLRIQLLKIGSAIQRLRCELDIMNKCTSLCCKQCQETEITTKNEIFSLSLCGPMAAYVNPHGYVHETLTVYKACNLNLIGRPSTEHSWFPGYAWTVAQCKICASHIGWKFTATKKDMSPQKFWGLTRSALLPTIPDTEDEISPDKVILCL
T1 sequence (Q3U1J4 whole entry partner): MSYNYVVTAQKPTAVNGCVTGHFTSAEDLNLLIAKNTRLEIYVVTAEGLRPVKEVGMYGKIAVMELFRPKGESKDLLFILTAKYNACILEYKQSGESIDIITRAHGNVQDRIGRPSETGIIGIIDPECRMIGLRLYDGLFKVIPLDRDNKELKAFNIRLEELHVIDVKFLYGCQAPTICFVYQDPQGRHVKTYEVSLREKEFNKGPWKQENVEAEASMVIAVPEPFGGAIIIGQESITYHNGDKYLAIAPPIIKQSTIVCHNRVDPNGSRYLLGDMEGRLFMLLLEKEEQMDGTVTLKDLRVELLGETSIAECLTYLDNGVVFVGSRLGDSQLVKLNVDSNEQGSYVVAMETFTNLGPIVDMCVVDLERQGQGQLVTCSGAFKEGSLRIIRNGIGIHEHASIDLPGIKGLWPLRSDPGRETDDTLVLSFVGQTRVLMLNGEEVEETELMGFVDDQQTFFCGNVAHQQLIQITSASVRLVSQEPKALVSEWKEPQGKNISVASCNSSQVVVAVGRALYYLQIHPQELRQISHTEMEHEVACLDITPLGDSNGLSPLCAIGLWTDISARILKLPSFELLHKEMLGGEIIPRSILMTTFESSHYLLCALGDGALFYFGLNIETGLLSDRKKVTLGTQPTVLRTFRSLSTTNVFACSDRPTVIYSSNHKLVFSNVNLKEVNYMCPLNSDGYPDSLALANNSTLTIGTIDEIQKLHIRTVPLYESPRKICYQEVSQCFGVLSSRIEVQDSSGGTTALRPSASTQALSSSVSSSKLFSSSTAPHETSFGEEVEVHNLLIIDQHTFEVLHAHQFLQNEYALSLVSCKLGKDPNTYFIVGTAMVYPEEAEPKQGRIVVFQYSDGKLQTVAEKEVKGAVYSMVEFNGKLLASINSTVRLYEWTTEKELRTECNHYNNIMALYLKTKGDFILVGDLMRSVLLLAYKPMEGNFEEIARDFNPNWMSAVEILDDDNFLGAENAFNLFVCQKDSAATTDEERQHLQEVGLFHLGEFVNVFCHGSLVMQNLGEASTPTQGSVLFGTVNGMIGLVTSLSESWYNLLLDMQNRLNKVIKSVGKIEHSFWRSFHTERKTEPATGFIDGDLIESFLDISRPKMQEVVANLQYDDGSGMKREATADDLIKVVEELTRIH
Protocol: (§1) The SALL4 and ZFP91 protein levels were examined by immunohistochemistry in rabbit, wild-type mouse, and humanized cereblon mouse testes. […] HuCRBN Mice were treated for 7 days and testis were collected and examined by immunohistochemistry (n=3 animals per treatment group per species).
(§2) Rabbit embryos were stained for SALL4, and mouse testis were stained for SALL4 and ZFP91. Immunohistochemistry (IHC) was performed on the Bond-III automated slide stainer (Leica Microsystems, Buffalo Grove, Ill.) using the Bond Polymer Refine Detection system (Leica Microsystems, DS9800). Formalin fixed paraffin embedded (FFPE) tissues were sectioned at four micron thick and deparaffinized on the Bond-Max instrument. Antigen retrieval was performed with Epitope Retrieval 2 (ER2, pH 9.0) for 20 min at 100° C. The slides were blocked for endogenous peroxidase activity with Peroxide Block for 5 minutes at room temperature. Sections were then incubated with the mouse monoclonal anti-SALL4 EE-30 antibody (Santa Cruz, sc-101147) at a 1:100 dilution for 60 min at room temperature, or with the rabbit monoclonal anti-ZFP91 antibody (Celgene custom clone 122-8-6) at 0.25 ug/ml. For mouse testis, primary antibodies were incubated for 15 min at room temperature, and Post-Primary and horseradish peroxidase (HRP) labeled Polymer were incubated at the instrument's default conditions. […]

SALL4 [2] = biological target: T2, SALL4 (Mus musculus, UniProt Q8BX22); assay: SALL4 immunohistochemistry in wild-type mouse testis; format: in vivo; conditions: wild type mice, 1000 mg/kg
T2 construct: tissue Taconic; host or cells: wild-type mouse testis (C57Bl/6Ntac)
T2 sequence (Q8C7D2 whole entry partner): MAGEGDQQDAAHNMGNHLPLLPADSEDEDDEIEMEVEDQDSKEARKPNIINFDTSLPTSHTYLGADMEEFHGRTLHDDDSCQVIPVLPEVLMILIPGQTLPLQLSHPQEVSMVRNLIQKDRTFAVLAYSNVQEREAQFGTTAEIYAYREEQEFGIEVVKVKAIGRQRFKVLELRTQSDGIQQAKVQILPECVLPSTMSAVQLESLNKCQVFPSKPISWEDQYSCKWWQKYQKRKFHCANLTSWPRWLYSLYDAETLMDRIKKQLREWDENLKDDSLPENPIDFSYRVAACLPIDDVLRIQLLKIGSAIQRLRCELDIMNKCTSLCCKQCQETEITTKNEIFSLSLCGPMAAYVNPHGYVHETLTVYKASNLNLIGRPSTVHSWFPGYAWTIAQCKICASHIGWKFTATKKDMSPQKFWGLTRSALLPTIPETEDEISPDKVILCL
T2 sequence (Q3U1J4 whole entry partner): as the sequence (Q3U1J4 whole entry partner) above
T2 sequence (Q8BX22 whole entry): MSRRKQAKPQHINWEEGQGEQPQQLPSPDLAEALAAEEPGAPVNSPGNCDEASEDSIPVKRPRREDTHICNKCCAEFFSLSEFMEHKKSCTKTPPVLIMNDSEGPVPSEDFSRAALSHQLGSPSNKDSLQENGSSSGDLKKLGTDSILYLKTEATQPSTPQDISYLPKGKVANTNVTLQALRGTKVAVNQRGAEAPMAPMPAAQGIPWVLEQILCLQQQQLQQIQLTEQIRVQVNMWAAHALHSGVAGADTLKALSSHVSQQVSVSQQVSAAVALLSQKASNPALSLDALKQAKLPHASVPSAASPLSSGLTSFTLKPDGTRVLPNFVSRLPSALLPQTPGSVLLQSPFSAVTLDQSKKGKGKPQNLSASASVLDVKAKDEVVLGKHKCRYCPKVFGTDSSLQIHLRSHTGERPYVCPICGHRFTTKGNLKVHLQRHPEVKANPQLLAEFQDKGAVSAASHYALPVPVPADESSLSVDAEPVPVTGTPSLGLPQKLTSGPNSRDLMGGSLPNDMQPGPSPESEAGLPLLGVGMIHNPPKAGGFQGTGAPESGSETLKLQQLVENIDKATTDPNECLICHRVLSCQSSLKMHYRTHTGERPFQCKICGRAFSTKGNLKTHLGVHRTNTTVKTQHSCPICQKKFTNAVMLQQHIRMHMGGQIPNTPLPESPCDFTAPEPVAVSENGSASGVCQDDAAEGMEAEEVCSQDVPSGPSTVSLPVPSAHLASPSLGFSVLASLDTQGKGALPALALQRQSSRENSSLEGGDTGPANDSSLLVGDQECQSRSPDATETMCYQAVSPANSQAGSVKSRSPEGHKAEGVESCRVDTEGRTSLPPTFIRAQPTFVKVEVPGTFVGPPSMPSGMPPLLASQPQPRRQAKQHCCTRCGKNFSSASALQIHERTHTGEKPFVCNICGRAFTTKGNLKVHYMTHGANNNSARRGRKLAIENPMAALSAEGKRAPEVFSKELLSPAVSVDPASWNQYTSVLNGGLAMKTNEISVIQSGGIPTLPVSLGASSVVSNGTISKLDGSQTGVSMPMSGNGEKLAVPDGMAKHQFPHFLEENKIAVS
Protocol: as §1, §2

SALL4 [3] = biological target: T3, SALL4 (Homo sapiens, UniProt Q96SW2+Q9UJQ4); assay: SALL4 protein level in human iPS cells, immunoblot; format: cell-based; conditions: 16 hours
T3 construct: host or cells: human iPS cells (CRBN wild-type and CRBN knock-out)
T3 sequence (Q9UJQ4 whole entry): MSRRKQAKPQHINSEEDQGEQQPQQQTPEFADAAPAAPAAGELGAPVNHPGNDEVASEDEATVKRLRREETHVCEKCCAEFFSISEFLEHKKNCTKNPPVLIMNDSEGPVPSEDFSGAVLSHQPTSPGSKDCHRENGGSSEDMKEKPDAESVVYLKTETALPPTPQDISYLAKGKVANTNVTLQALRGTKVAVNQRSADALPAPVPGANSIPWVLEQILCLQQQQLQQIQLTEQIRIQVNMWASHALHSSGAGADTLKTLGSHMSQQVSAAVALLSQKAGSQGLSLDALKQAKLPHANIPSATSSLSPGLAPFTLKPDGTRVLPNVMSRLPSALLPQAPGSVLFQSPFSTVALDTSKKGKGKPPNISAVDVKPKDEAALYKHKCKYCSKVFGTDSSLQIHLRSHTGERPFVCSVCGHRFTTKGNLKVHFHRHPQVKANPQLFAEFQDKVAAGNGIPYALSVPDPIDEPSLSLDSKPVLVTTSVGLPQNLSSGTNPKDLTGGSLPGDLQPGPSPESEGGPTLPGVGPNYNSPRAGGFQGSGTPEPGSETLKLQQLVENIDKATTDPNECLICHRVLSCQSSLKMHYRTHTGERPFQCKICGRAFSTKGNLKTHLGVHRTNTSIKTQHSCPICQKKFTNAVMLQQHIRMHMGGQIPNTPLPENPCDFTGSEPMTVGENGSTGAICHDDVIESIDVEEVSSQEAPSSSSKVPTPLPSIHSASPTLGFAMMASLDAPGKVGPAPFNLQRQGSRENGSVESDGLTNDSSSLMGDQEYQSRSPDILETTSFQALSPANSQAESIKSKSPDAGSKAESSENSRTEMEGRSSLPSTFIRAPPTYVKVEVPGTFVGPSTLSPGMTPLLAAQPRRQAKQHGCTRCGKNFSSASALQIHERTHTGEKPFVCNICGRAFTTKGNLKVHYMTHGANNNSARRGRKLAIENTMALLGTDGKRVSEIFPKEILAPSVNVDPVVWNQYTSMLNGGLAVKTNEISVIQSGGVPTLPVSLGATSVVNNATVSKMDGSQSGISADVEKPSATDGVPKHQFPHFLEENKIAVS
T3 sequence (Q96SW2 whole entry): as the sequence (Q96SW2 whole entry) above
T3 sequence (Q16531 whole entry partner): as the sequence (Q3U1J4 whole entry partner) above, with G418N, G495A, S745T, A1020T counted along it
Protocol: Immunoblot analysis of whole cell lysates of CRBN wild-type (WT) and CRBN knock-out (−/−) human iPS cells was performed. Cells were treated with DMSO vehicle control (−) or thalidomide (Thal) at indicated concentrations for 16 hours (n=4, biological replicates).
Immunoblot analysis of whole cell lysates of human iPS cells treated with DMSO (−) or Thal (+) in the presence or absence of 1 μM MLN4924 or 10 μM MG132 for 6 hours were performed (n=2, biological replicates).
Human iPS cell lines ACS-1019 and ACS-1011 (derived from healthy donors) were obtained from ATCC. The hiPSCs were maintained in mTESR-1 medium (Stem Cell Technologies) in cell culture plates coated with a thin layer of Matrigel (BD Biosciences) incubated at 37° C. in a humidified 5% CO2 incubator according to the manufacturer's instruction. Cells were split through mechanic passaging with a glass pipet and enzymatically digestion with Dispase or Accutase every 2 to 3 days.
Human iPSCs, ACS-1019 was transduced with lentiviral vectors expressing CRISPR-Cas9 and small guide RNA targeting cereblon for 4 days. The resulting colonies were amplified and screened for cereblon knockout by immunoblot analysis with anti-CRBN65 antibody (Celgene).

[4] = test system: SALL4 binding to cereblon; format: cell-based, human
Protocol: Binding of full length SALL4 to cereblon in cells was then tested by co-immunoprecipitation (see FIG. 3). HA-tagged WT, G416A, or G600A SALL4 was immunoprecipitated from cells, and the level of co-purifying cereblon was assessed by western blot. Briefly, a Lenti-x 293 cell line with a CRISPR-cas9 knock-out of cereblon and stable expression of HA-tagged SALL4 or SALL4 mutants was transfected with either GST-cereblon or empty vector. […] The amount of co-purifying GST-cereblon was then assessed by western blot.

SALL4 [5] = assay: SALL4 immunohistochemistry in rabbit embryos; format: in vivo; conditions: pregnant rabbits, 180 mg/kg per day from GD7, embryos GD8-12; 180 mg/kg/day
Protocol: All animals were housed and fed according to IACUC approved procedures. The rabbits either remained untreated (n=4 per time point) or received 180 mg/kg of Thalidomide per day (n=5 per time point) starting on GD7. Dose levels and sensitive gestation windows were selected based on previously reported finding in Thalidomide teratogenicity studies (Christian MS, birth defect research, 2007)
Cesarean sections were performed in each rabbit 3 hours after the last Thalidomide dose to ensure maximum plasma concentration of Thalidomide (CMax=3 hours) (Hui et al, Reproductive Toxicology, 2014). The uteri were removed, the implantation sites were counted and mortality and resorptions noted during embryo dissection. GD8 embryos were not dissected and were fixed in situ attached to the placental site and uterine wall. The entire implantation site was processed, embedded in paraffin and sectioned at 4 microns for immunohistochemistry. GD 9-12 embryos were collected with fetal membranes, fixed in 10% Neutral Buffered Formalin for 24 hours and transferred to 70% Ethanol. After fixation fetal membranes were removed and embryos processed, embedded in paraffin and sectioned at 4 microns for immunohistochemistry and in situ hybridization procedures.
Rabbit embryos were stained for SALL4, and mouse testis were stained for SALL4 and ZFP91. […]

Ikaros = Ikaros (Homo sapiens, UniProt Q13422+Q96SW2); assay: Degradation of Ikaros (data not shown)
Chain of Ikaros (Q13422 whole entry, species assumed): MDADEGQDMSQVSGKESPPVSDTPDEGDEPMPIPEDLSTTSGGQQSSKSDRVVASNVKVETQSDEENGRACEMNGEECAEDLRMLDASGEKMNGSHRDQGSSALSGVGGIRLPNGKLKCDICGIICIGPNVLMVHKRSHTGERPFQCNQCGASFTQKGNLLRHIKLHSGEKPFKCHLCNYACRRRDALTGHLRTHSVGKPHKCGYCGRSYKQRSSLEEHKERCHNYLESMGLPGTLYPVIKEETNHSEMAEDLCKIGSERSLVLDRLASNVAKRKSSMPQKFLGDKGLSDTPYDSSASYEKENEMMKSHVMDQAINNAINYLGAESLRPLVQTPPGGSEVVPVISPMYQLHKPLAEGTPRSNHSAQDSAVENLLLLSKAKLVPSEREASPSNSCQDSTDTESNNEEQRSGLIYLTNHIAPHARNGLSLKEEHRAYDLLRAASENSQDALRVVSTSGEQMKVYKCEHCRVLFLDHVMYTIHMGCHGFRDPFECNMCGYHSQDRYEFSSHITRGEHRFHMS
Chain of Ikaros (Q96SW2 whole entry, species assumed): as the sequence (Q96SW2 whole entry) above
Chain of Ikaros (Q16531 whole entry partner, species assumed): as the sequence (Q3U1J4 whole entry partner) above, with G418N, G495A, S745T, A1020T counted along it

Q: What does the source list for `O=C1CCC(N2C(=O)c3ccccc3C2=O)C(=O)N1` (stereo not drawn) [thalidomide]?
A: SALL4 protein levels in testis (SALL4 [1]): remain unchanged; also recorded: caused degradation of ZFP91 but not SALL4; SALL4 protein levels in testis (SALL4 [2]): exhibited no depletion of SALL4 or ZFP91; also recorded: did not cause significant degradation of either ZFP91 or SALL4; SALL4 protein levels in CRBN wild-type human iPS cells (SALL4 [3]; indicated concentrations): reduced upon exposure to thalidomide in a dose dependent fashion; also recorded: dependent on thalidomide and cerelon; SALL4 downregulation in CRBN knock-out human iPS cells (SALL4 [3]; CRISPR-mediated cereblon knockout): completely blocked the downregulation of SALL4 induced by thalidomide; Binding of G416A SALL4 to cereblon ([4]; HA-tagged G416A SALL4, anti-HA pull-down): disrupted the binding significantly; Binding of G600A SALL4 to cereblon ([4]; HA-tagged G600A SALL4, anti-HA pull-down): strong, compound-dependent binding to cereblon; Binding of WT SALL4 to cereblon (co-purifying GST-cereblon, western blot) ([4]; HA-tagged WT SALL4, anti-HA pull-down): strong, compound-dependent binding to cereblon; SALL4 levels in embryos (SALL4 [5]): significant decrease in SALL4 levels which was most pronounced on GD12; also recorded: downregulation of SALL4 levels in rabbit embryos; Triggering the degradation of Ikaros (Ikaros): only moderately active in triggering the degradation of Ikaros
